For experiment [1], the system named is H1N1 strains of Influenza. In kind it is in vivo, human. Conditions: patients in all groups, after influenza vaccination.
Experiment [2] in a line: GnRH agonist in metastatic prostate cancer, haemopoiesis and neutrophil count (Example 28). It counts as in vivo, human. Conditions: within the first 14 days of therapy. The procedure: All patients also received an anti-androgen drug. Cosudex® may also be given (5 mg/day or 50 mg/day orally) for 1 month. All patients undergo a Full Blood Analysis (FBA) prior to the commencement of therapy. FBA involves standard pathology analysis of lymphocytes, white blood cells, hematocrit and red blood cell content. In addition, analysis of immunological parameters including T cell stimulation, cytokine production, immune cell subsets and TREC analysis are performed. Additionally, blood samples from each patient are drawn at days −2, 0, 1, 2, 3, 7, 10, 14, 21, and 28, and monthly thereafter for 6 months. The blood samples are then evaluated for WBC, neutrophils, T cells (by FACS analysis, as described in detail above), granulocytes levels, and hematocrit, using the methods described in detail elsewhere herein, as well as methods well known to those skilled in the art.

Experiment [3] in a line: G-CSF with or without Lupron in small cell lung cancer patients on chemotherapy (Example 26). In kind it is in vivo, human.
A short description of experiment [4]: GnRH analog before allogeneic BMT (Example 27). It counts as in vivo, human. On the procedure: In a randomized unblinded study 20 patients are treated with a GnRH analog prior to receiving a BMT. This patient group is to a control group (n=19) who also undergo a BMT, but will not receive a GnRH analog.
All patients receive an allogeneic graft from a matched donor in accordance with accepted medical techniques (Lincz et al., (2001) Leuk. and Lymph. 40: 373).
Prior to transplant, the BM from all patients is ablated using standard ablating drugs and techniques (Segeren et al., (1999). Br. J. Haem. 105:127-130).
Blood samples from each patient are drawn at days −21, −2, 0, 1, 2, 3, 7, 10, 14 and 21. The blood samples are then evaluated for WBC, neutrophils, T cells (by FACS analysis, as described in detail above), granulocytes levels, and hematocrit, using the methods described in detail elsewhere herein, as well as methods well known to those skilled in the art.
Additionally, all patients are monitored for infection rates (including viral infection), the use of antibiotics, febrile neutropenia, and mean days of severe neutropenia (ANC<0.5×10^9/L). These analyses are performed as outlined above, with the patients being followed up at 1 month, 3 months, 6 months and 9 months from the date of transplant.

In another experiment the test system is sex steroids. To be noted: 30 mg injection; cited from earlier work.
Experiment [5] deals with pituitary LH, serum testosterone. To be noted: chronic administration, cited from earlier work.
Experiment [6] deals with sex steroid levels. Kind of experiment: Zoladex before autologous or allogeneic PBSCT (Example 31). To be noted: implant from day -21 before PBSC infusion. In kind it is in vivo, human. On the procedure: Patients are male or female, aged 18 years or older that are due to undergo high-dose therapy (HDT) with PBSCT for malignant disease or BM failure. The 10.8 mg implant formulation (for men) of the Zoladex® is dispersed in a cylindrical rod of biodegradable and biocompatible polyglactins and is released continuously over 12 weeks following subcutaneous injection. The 3.6 mg implant (for women) is dispersed in a cylindrical rod of a biodegradable and biocompatible polyglactin and is released continuously over 28 days following subcutaneous injection. The implants are commercially supplied in a purpose-designed applicator with 14-16 gauge needles.
Reduction of sex steroids in the blood to minimal values may take several weeks. Consequently, 21 days prior to PBSC infusion (day 0), patients are injected with the sex steroid ablation therapy in the form of LHRH agonist Zoladex® (implant). For males, 10.8 mg goserelin as a single dose (effective for 3 months) are administered on day −21 with a further injection of 3.6 mg on day 63 (effective for 28 days). For females, 3.6 mg (effective for 28 days) are administered on day −21 and days 7, 35 and 63. […] Other doses may be deemed acceptable as determined readily by those skilled in the art. […]
Thymic function is determined by assessment of T cell subsets by flow cytometry, T cell responses in vitro, and production of TRECs.

The subject of experiment [7] is sex steroid levels. Kind of experiment: Sex steroid ablation therapy of a patient with an LHRH agonist (Example 6). In kind it is in vivo, human. To be noted: single dose effective for 3 months. On the procedure:
The patient was given sex steroid ablation therapy in the form of delivery of an LHRH agonist. This was given in the form of either Leucrin (depot injection; 22.5 mg) or Zoladex® (implant; 10.8 mg), either one as a single dose effective for 3 months. […] In some cases it is also necessary to deliver a suppresser of adrenal gland production of sex steroids. Cosudex® (5 mg/day or 50 mg/day) may also be given as one tablet per day for the duration of the sex steroid ablation therapy. Alternatively, the patient is given a GnRH antagonist, e.g., Cetrorelix or Abarelix, as a subcutaneous injection

Experiment [8] deals with IL-7-dependent murine pre-B cell line 2E8. As to the kind of experiment: Thymidine incorporation proliferation assay with IL-7-dependent pre-B cell line. It counts as cell-based. To be noted: 2E8 cell line. The procedure: Tissue culture medium consisted of RPMI 1640 supplemented with 10% heat inactivated fetal calf serum, 100 U/mL penicillin, […] streptomycin, and 2 mM L-glutamine (as well as […] 2-mercaptoethanol for the culture of 32Dp210 cells and proliferation assays).

In the next experiment the test system is thymic cellularity. Kind of experiment: IL-7 administration with or without castration in allogeneic HSCT recipients, thymic cellularity. In kind it is in vivo, mice. The source says: Mice and HSCT. Male C57BL/6J (B6, H-2b), C3FeB6F1/J([B6 3 C3H]F1; H-2b/k), B10.BR (H-2k), B6D2F1/J (H-2b/d), CBA/J (H-2k), Balb/c (H2-d), IL7−/− and KGF−/− mice were obtained from the Jackson Laboratory (Bar Harbor, Me.) and used in experiments when they were between 8 and 12 weeks of age. KGF−/− and IL7−/− were used between 4 and 7 months of age. HSCT protocols were approved by the Memorial Sloan-Kettering Cancer Center Institutional Animal Care and Use Committee. The BM cells were removed aseptically from femurs and tibias. Donor BM was depleted of T cells by incubation with anti-Thy-1.2 for 30 mins. at 4° C. followed by incubation with Low-TOX-M rabbit complement (Cedarlane Laboratories, Hornby, ON, Canada) for 1 hour at 37° C. Splenic T cells (for GVHD analysis) were obtained by purification over a nylon wool column followed by red cell removal with ammonium chloride red cell lysis buffer. Cells (5×10^6 BM cells with or without splenic T cells and leukemia cells) were resuspended in Dulbecco modified essential medium (Life Technologies, Grand Island, N.Y.) and transplanted by tail vein infusion (0.25 mL total volume) into lethally irradiated recipients on day 0. Prior to transplantation, on day 0, recipients received 1300 cGy total body irradiation (^137Cs source) as split dose with 3 hours between doses (to reduce gastrointestinal toxicity). Mice were housed in sterilized microisolator cages and received normal chow and autoclaved hyperchlorinated drinking water (pH 3.0).
Administration of IL-7. IL-7 were either given from days 0 to 13 or 21 to 27 intraperitoneally at 10 μg/day for immune reconstitution studies. PBS was injected into control mice at the same time-points.
Flow Cytometric Analysis. BM cells, splenocytes or thymocytes were washed in FACS buffer (phosphate buffered saline (PBS)/2% bovine serum albumin (BSA)/0.1% azide) and 1-3×10^6 cells were incubated for 30 mins. at 4° C. with CD16/CD32 FcR block. Cells were then incubated for 30 mins. at 4° C. with primary antibodies and washed twice with FACS buffer. Where necessary, cells were incubated with conjugated Streptavidin for a further 30 mins. at 4° C. The stained cells were resuspended in FACS buffer and analyzed on a FACSCalibur™ flow cytometer (Becton Dickinson, San Jose, Calif.) with CellQuest™ software.

Bounds are passed on as bounds.

For the compound `CCNC(=O)[C@@H]1CCCN1C(=O)[C@H](CCCNC(=N)N)NC(=O)[C@H](CC(C)C)NC(=O)[C@@H](CC(C)C)NC(=O)[C@H](Cc1ccc(O)cc1)NC(=O)[C@H](CO)NC(=O)[C@H](Cc1c[nH]c2ccccc12)NC(=O)[C@H](Cc1c[nH]cn1)NC(=O)[C@@H]1CCC(=O)N1` [Lupron®, leuprolide acetate], the “hemagglutination-inhibition antibody titer versus prior to therapy” value in experiment [1] is on record as “higher hemagglutination-inhibition antibody titer”. Besides, in experiment [2], the “patients with an increase in haemopoiesis (T cell analysis) and neutrophil count versus baseline” value is “approximately 70%”. Besides, in [3] (G-CSF plus low dose Lupron 11.25 mg (Group 3)), the “results versus higher Lupron dosage (Group 2)” value is “not statistically different”. Besides, in [3] (Lupron 22.5 mg on day 14 pre-chemotherapy (Group 4)), the “results versus Group 2” value is recorded as “not statistically different”. Moreover, in experiment [4] (3, 6 and 9 months from transplant), the “infection rates between the 2 groups” value was “statistically different”. Besides, the “WBC counts, mean days of severe Neutropenia (ANC <500/mm^3) and febrile neutropenia versus non-treated group” value in experiment [4] (up to day 21 from transplantation) was “clinically and statistically significant reduction”. Also, the “incidence of viral and other infection rates between the two groups” value in [4] (up to month 1) was “not be statistically significant”. In addition, the “duration of sex steroid ablation” value with sex steroids was “four months”.

For the compound `CC(C)C[C@H](NC(=O)[C@@H](COC(C)(C)C)NC(=O)[C@H](Cc1ccc(O)cc1)NC(=O)[C@H](CO)NC(=O)[C@H](Cc1c[nH]c2ccccc12)NC(=O)[C@H](Cc1cnc[nH]1)NC(=O)[C@@H]1CCC(=O)N1)C(=O)N[C@@H](CCCNC(=N)N)C(=O)N1CCC[C@H]1C(=O)NNC(N)=O` [Zoladex®, goserelin acetate], the “time to sustained suppression of pituitary LH” value in experiment [5] (after initiation of therapy) is reported as at most 3 weeks. Besides, the “serum testosterone levels in males” value in experiment [5] is given as “range normally seen in surgically castrated men”. The “reduction of sex steroid levels” value in the experiment on sex steroid levels [6] and with sex steroid levels [7] was “effective in reducing sex steroid levels sufficiently to reactivate the thymus” in each case.

On to “IL-7: Recombinant human IL-7 provided by Cytheris”, for which the “proliferative effect on murine cells” value in experiment [8] is reported as “equal to murine IL-7”. Besides, in the experiment on thymic cellularity (day 14 after allo-HSCT), the “thymic cellularity, combined castration and IL-7 versus castrated group” value is “no significant difference”; the “thymic cellularity, combined castration and IL-7 versus control” value is recorded as “significantly more cells”. For the same compound, in the experiment on thymic cellularity (day 14 after allo-HSCT, 10 μg/day i.p. days 0-13), the “thymic cellularity, IL-7 treated sham-castrated versus PBS treated sham-castrated” value is on record as “no difference”. In addition, the “thymic cellularity, IL-7 alone group versus control group” value with thymic cellularity (day 28 after allo-HSCT, IL-7 days 21-27) was “significantly higher than the control group”. The “effect of combination of IL-7 treatment and castration on thymic cellularity” value in the experiment with thymic cellularity (day 28 after allogeneic HSCT) was “additive effect”.

These data come from patent publication US20080279812A1, “Disease Prevention and Vaccination Prior to Thymic Reactivation” (Norwood Immunology, Ltd., priority 2003, published 2008).
